Test results from US20260102428A1, “COMPOSITIONS AND METHODS FOR THE INHIBITION OF METHICILLIN RESISTANT STAPHYLOCOCCUS AUREUS” (priority 2022, published 2026).
Where “and” joins values, the source holds several entries; their conditions need not be identical. Identical values can stand only once. Counter-ions that a name gives are not always drawn. Bridge positions count the residues as written; N and C are the ends. Square brackets hold non-standard residues; d marks the D form. Peptide text beside a SMILES is read from it. * marks the point of attachment. Ileψ(thiazoline)Cys = CC[C@H](C)[C@H](N)C1=N[C@H](C(=O)*)CS1; dOrn = NCCC[C@@H](N)C(=O)O

What was measured:
[1] = test system: erythromycin-resistant group A Streptococcus, methicillin-resistant Staphylococcus aureus, and vancomycin-resistant Enterococcus; details: cited from earlier work
S. aureus JE2 = assay type: cell-based, Staphylococcus aureus; details: 0.25-4× MIC, daily passage 1:100
[2] = reported values; cited from earlier work
MRSA strain USA300-LAC = assay: Zn(II)/Cu-dependent antibiotic screening of the Selleckchem bioactives library (resazurin growth readout); assay type: cell-based, Staphylococcus aureus; details: compound 10 μM, hit = growth reduced by at least 50%; for Activity class in Zn-dependent screening: with vs without 25 μM ZnSO4, 1×RPMI 1640; for Activity class in Cu-dependent screening: with vs without 25 μM CuSO4, 1×RPMI 1640
USA300-LAC [3] = assay: Minimal inhibitory concentration by dose-response curves (A600); assay type: cell-based, Staphylococcus aureus; details: for Antibacterial activity (MIC) without metal: 1×RPMI 1640, no added metal
[4] = Binding constant determination by UV/Vis-absorption titration
Protocol: Binding constants were determined using UV/Vis-absorption spectroscopy by titrating AVB with Cu(I), Cu(II), and Zn(II). Briefly, 1 mM AVB in 100% anhydrous DMSO was titrated in HEPES (4-(2-hydroxyethyl)-1-piperazineethanesulfonic acid) buffer (pH=7.2-7.4) with 800 μM CuBr, CuSO4, or ZnSO4 at the following concentrations: 0 μM, 25 μM, 50 μM, 75 μM, 100 μM, and 150 μM. Once the gradient of solutions was prepared, full spectrum UV/Vis-absorption spectroscopy was performed to detect characteristic spectral changes that occur as a consequence of metal cation binding. Binding constants were calculated by importing the spectra of individual titrations with each metal into the UV 1:1 Bindfit program.

USA300-LAC [5] = details: ZnSO4 titrated against compound, 1×RPMI 1640
[6] = test system: clinical multidrug-resistant MRSA isolates; assay: Minimal inhibitory concentration against clinical isolates (dose-response curves)
Protocol: Growth was determined after 20 h of incubation at 37° C. using A600 measurements as a readout. Percentage growth was calculated by normalizing the A600 measurements relative to that of the compound-untreated control of each metal condition. Data represent the mean±SEM (n=3 biological replicates, 3 technical replicates each). […] Data represent the mean±SEM (n=3 biological replicates, 3 technical replicates each).
All S. aureus strains utilized in this study were routinely cultured in Mueller-Hinton medium at 37° C. shaking at 180 rpm prior to transfer into experiment-specific media. […] Lastly, clinical multi-drug resistant MRSA strains were isolated, characterized for clinical drug resistance, de-identified, and obtained from UAB Laboratory Medicine.
The minimal inhibitory concentration (MIC) of the tested compounds was determined using dose-response curves as previously described. Briefly, each strain was cultured to mid-exponential phase in MH medium, as determined by OD600 measurement. S. aureus cultures were then normalized to an OD600 of 0.005 for transfer into the assay plates. Each strain was treated with compounds serially titrated in the assay medium in 96-well flat-bottom plastic plates with or without either CuSO4 or ZnSO4. Compound-untreated samples for each metal condition were used as negative controls. S. aureus were treated for 18-20 hours at 37° C. and 5% CO2. Following the treatment period, bacterial growth was determined by measuring the absorbance of each well at 600 nm using a Biotek Cytation 3 plate reader. Measurements were then background adjusted and normalized to either the untreated control or the metal only control.

human cells = assay: Eukaryotic toxicity assays, overall statement; assay type: cell-based; details: 0.4-30 μM ± 15 μM Zn, 24 hours
[7] = CuBr, HEPES buffer pH 7.2-7.4, UV 1:1 Bindfit
[8] = CuSO4, HEPES buffer pH 7.2-7.4, UV 1:1 Bindfit
[9] = ZnSO4, HEPES buffer pH 7.2-7.4, UV 1:1 Bindfit

For CN(C)Cc1ccc2c(Cl)cc(Cl)c(O)c2n1 [PTB2], the “Zinc concentrations required for antibacterial activity” value [1] is listed as 400 to 600 µM.
For CO[C@H]1/C=C/O[C@@]2(C)Oc3c(C)c(O)c4c(O)c(c(/C=N/N5CCN(C)CC5)c(O)c4c3C2=O)NC(=O)/C(C)=C\C=C\[C@H](C)[C@H](O)[C@@H](C)[C@@H](O)[C@@H](C)[C@H](OC(C)=O)[C@@H]1C [Rifampicin], the “Day from which resistant clones could be isolated” value (S. aureus JE2) was 5 days.
For O=C(O)CN(CCN(CC(=O)O)CC(=O)O)CC(=O)O [EDTA, 2,2′,2″,2′″-(Ethane-1,2-diyldinitrilo)tetraacetic acid], the “KD of high-affinity metal chelators” value [2] is listed as “picomolar to femtomolar range”.
In the case of Clc1ccccc1C(c1ccccc1)(c1ccccc1)n1ccnc1 [clotrimazole], the “Activity class in Zn-dependent screening” value (MRSA strain USA300-LAC) is reported as “Zn-activated”.
With CC[C@H](C)[C@H](N)C1=N[C@H](C(=O)N[C@@H](CC(C)C)C(=O)N[C@H](CCC(=O)O)C(=O)N[C@H](C(=O)N[C@H]2CCCCNC(=O)[C@H](CC(N)=O)NC(=O)[C@@H](CC(=O)O)NC(=O)[C@H](Cc3cnc[nH]3)NC(=O)[C@@H](Cc3ccccc3)NC(=O)[C@H]([C@@H](C)CC)NC(=O)[C@@H](CCCN)NC2=O)[C@@H](C)CC)CS1 [Bacitracin] ({Ileψ(thiazoline)Cys}-L[dE]IK[dOrn]I[dF]H[dD]N; lactam 4-C) the “Antibacterial activity (MIC) without metal” value (USA300-LAC [3]) was “completely inactive”, the MIC (USA300-LAC [3]; with 25 μM CuSO4, 1×RPMI 1640, 20 h 37° C.) was “could not be activated by Cu” and the “Activity class in Cu-dependent screening” value (MRSA strain USA300-LAC) was “not independent or Cu-dependent action”. For the same molecule, the “Activity class in Zn-dependent screening” value (MRSA strain USA300-LAC) was “Zn-dependent”, the KA [4, 7] was 9299 M⁻¹ and the Kd [4, 7] was 108 µM. For the same molecule, the KA [4, 8] was 738,233 M^−1, the Kd [4, 8] was 1.4 µM and 1.35 µM and the KA [4, 9] was 172,757 M^−1. The Kd [4, 9] was 5.7 µM and 5.79 µM and the “Zn concentration required for full activity / MIC” value (USA300-LAC [5]) was 10 µM.
With c1ccc(-c2ccc(C(c3ccccc3)n3ccnc3)cc2)cc1 (stereo not shown) [bifonazole] the “Activity class in Zn-dependent screening” value (MRSA strain USA300-LAC) was “Zn-activated”.
In the case of CC/C(=C(\c1ccccc1)c1ccc(OCCN(C)C)cc1)c1ccccc1 [tamoxifen], the “Activity class in Zn-dependent screening” value (MRSA strain USA300-LAC) is reported as “Zn-activated”.
In the case of CN(C)CCOc1ccc(/C(=C(/CCCl)c2ccccc2)c2ccccc2)cc1 [toremifene citrate], the “Activity class in Zn-dependent screening” value (MRSA strain USA300-LAC) is reported as “Zn-activated”.
In the case of bacitracin-Zn, the “MIC of bacitracin-Zn relative to that of AVB-Zn” value (USA300-LAC [3]; with 25 μM ZnSO4) is reported as “four-fold higher”, the MIC / resistance ([6]; isolate CI-2, with 25 μM ZnSO4) is reported as “fully resistant” and the MIC / resistance ([6]; isolate CI-3, with 25 μM ZnSO4) is reported as “fully resistant”. It also gave an MIC ([6]; isolate CI-4, with 25 μM ZnSO4) of 10 µM, an MIC ([6]; isolate CI-5, with 25 μM ZnSO4) of 10 µM and an MIC ([6]; isolate CI-1320, with Zn) of 2 µM. The MIC / resistance ([6]; isolate CI-1321, with Zn) was “partially resistance”, the MIC / resistance ([6]; isolate CI-1323, with Zn) was “resistant to bacitracin-Zn at all concentrations tested” and the MIC / resistance ([6]; isolate CI-1324, with Zn) was “resistant to bacitracin-Zn at all concentrations tested”. It also gave an MIC ([6]; isolate CI-1328, with Zn) of 2 µM.
In the case of COc1ccc(C(=O)CC(=O)c2ccc(C(C)(C)C)cc2)cc1 [Avobenzone, 1-(4-tert-butylphenyl)-3-(4-methoxyphenyl)propane-1,3-dione], the “Antibacterial activity (MIC) without metal” value (USA300-LAC [3]) is reported as “no antibacterial activity”, the “Activity class in Cu-dependent screening” value (MRSA strain USA300-LAC) is reported as “activated by both Zn and Cu” and the “Activity class in Zn-dependent screening” value (MRSA strain USA300-LAC) is reported as “activated by both Zn and Cu”. The KA [4, 7] was 6900 M⁻¹, the Kd [4, 7] was 115 µM and the KA [4, 8] was 225,279 M^−1. For the same molecule, the Kd [4, 8] was 4.43 µM, the Kd ([4]; CuSO4, HEPES buffer pH 7.2-7.4, UV 1:1 Bindfit, listed as AVB) was 4.4 µM and the KA [4, 9] was 168,982 M^−1. For the same molecule, the Kd [4, 9] was 5.92 µM, the Kd ([4]; ZnSO4, HEPES buffer pH 7.2-7.4, UV 1:1 Bindfit, listed as AVB) was 5.9 µM and the Cytotoxicity (human cells) was “no relevant cytotoxicity”. For the same molecule, the “Zn concentration required for full activity / MIC” value (USA300-LAC [5]) was 1.25 to 10 µM.
For c1ccc(CN(CCN(Cc2ccccn2)Cc2ccccn2)Cc2ccccn2)nc1 [TPEN, N,N,N′,N′-tetrakis(2-pyridinylmethyl)-1,2-ethanediamine], the “KD of high-affinity metal chelators” value [2] is given as “picomolar to femtomolar range”.
With Clc1ccc(C(Cn2ccnc2)OCc2ccsc2Cl)c(Cl)c1 (stereo not shown) [tioconazole] the “Activity class in Zn-dependent screening” value (MRSA strain USA300-LAC) was “Zn-activated”.
